Measurements: US6727264B1 (Synaptic Pharmaceutical Corporation, priority 2001, dated 2004)
Where two headings read alike, the source gives them in different places.

Biological target: rat MCH-1 (Rattus norvegicus, UniProt P97639)
Assay: Radioligand binding assay at cloned rat MCH1 receptor ([3H] Compound A)
Parameters: host or cells: Peak rapid 293 (Peakr293) cells, transient calcium phosphate transfection, membranes
Conditions: cloned rat MCH1 receptor, 0.08 nM [3H] Compound A, read-out: Ki (nM) rMCH1

Sequence of rat MCH-1 (P97639 whole entry): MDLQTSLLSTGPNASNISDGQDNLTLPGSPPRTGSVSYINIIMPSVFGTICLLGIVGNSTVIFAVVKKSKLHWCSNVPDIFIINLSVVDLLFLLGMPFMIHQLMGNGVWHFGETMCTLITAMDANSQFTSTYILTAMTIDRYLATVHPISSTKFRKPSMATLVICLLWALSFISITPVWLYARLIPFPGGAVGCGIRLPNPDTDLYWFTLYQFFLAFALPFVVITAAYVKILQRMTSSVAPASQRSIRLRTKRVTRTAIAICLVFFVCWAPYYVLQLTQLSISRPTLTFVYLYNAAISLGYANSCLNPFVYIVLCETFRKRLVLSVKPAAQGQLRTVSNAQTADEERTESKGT

| Compound | Ki (Peakr293 cell membranes) [nM] | Ki (membranes from Peakr293 cells) [nM] |
| --- | --- | --- |
| Cc1noc(C)c1S(=O)(=O)NCCCN1CCC(c2cccc(NC(=O)C(C)C)c2)CC1 [Example 644] | 196 | – |
| CC(=O)c1cccc(OC(CCCCCN2CCC(c3cccc(NC(=O)C(C)C)c3)CC2)c2ccccc2F)c1 (stereo not shown) [Example 888] | 19.8 | – |
| CCOc1ccc(NC(=O)NCCCN2CCC(c3cccc(NC(=O)C(C)C)c3)CC2)cc1 [Example 617] | 609 | – |
| COc1ccc(CCCCN2CCC(c3cccc(NC(=O)C(C)C)c3)CC2)cc1 [Example 797] | 42.4 | – |
| CC(=O)c1cccc(OCCCN2CCC(c3cccc(NC(=O)C(C)C)c3)CC2)c1 [Example 341] | – | 256 |
| Cc1ccc(-n2ccc3cc(CN4CCC(c5cccc(NC(=O)C(C)C)c5)CC4)ccc32)cc1 [Example 848] | 19.1 | – |
| CCC(=O)Nc1cccc(C2CCN(CCCCC(=O)c3ccccc3Cl)CC2)c1 [Example 566] | 77.8 | – |
| CC(C)C(=O)Nc1cccc(C2CCN(CC[C@H](NS(=O)(=O)c3cc(Cl)ccc3Cl)c3ccccc3)CC2)c1 [Example 600] | 41.3 | – |
| Cc1c(CN2CCC(c3cccc(NC(=O)C(C)C)c3)CC2)cnn1-c1ccccc1 [Example 218] | – | 126 |
| CC(C)C(=O)Nc1cccc(C2CCN(Cc3c[nH]c4ccc([N+](=O)[O-])cc34)CC2)c1 [Example 429] | 121 | – |
| CC(C)C(=O)Nc1cccc(C2CCN(CCCCCCC(O)c3ccccc3)CC2)c1 (stereo not shown) [Example 282] | – | 23.5 |
| CC(C)C(=O)Nc1cccc(C2CCN(CCCCCCNC(=O)Nc3cccc4ccccc34)CC2)c1 [Example 634] | 116 | – |
| CC(C)C(=O)Nc1cccc(C2CCN(CCCCCC(Oc3ccc(Cl)cc3)c3ccc(Cl)cc3)CC2)c1 (stereo not shown) [Example 899] | 18 | – |
| COc1ccc(OC(CCN2CCC(c3cccc(NC(=O)C(C)C)c3)CC2)c2ccc3c(c2)CCC3)cc1 (stereo not shown) [Example 161] | – | 7.9 |
| CC(C)c1ccc(C(=O)CCCN2CCC(c3cccc(NC(=O)C4CC4)c3)CC2)cc1 [Example 537] | 67.7 | – |
| CC(C)C(=O)Nc1cccc(C2CCN(CCC(Oc3ccccc3)c3ccc(Cl)cc3)CC2)c1 (stereo not shown) [Example 180] | – | 9.7 |
| CC(C)C(=O)Nc1cccc(C2CCN(CC[C@H](NC(=O)Nc3ccc(Cl)c(Cl)c3)c3ccccc3)CC2)c1 [Example 611] | 65.1 | – |
| CC(C)C(=O)Nc1cccc(C2CCN(CCCNC(=S)NC(C)(C)C)CC2)c1 [Example 620] | 223 | – |
| CC(C)C(=O)Nc1cccc(C2CCN(CCCc3c(-c4cccc(Br)c4)n(C)c4ccccc34)CC2)c1 [Example 758] | 110 | – |
| CC(C)C(=O)Nc1cccc(C2CCN(CCCc3c(-c4cccc(Cl)c4)[nH]c4ccc(OC(F)(F)F)cc34)CC2)c1 [Example 723] | 9.2 | – |
| Cc1cccc2c(CCCN3CCC(c4cccc(NC(=O)C(C)C)c4)CC3)c(-c3cccc(I)c3)[nH]c12 [Example 743] | 4.1 | – |
| CCCC(=O)Nc1ccc(C2CCN(CCCCn3ccc4ccccc43)CC2)cc1 [Example 840] | 663 | – |
| CC(C)C(=O)Nc1cccc(C2CCN(CCCCOC(=O)Cc3ccc(F)cc3)CC2)c1 [Example 299] | – | 37.5 |
| CC(C)C(=O)Nc1cccc(C2CCN(CC[C@H](NC(=O)c3ccc(Oc4cc(Cl)cc(Cl)c4)[nH]3)c3ccccc3)CC2)c1 [Example 318] | – | 251 |
| Cc1ccc2[nH]c(-c3ccc(Br)cc3)c(CCCN3CCC(c4cccc(NC(=O)C(C)C)c4)CC3)c2c1 [Example 764] | 14.6 | – |

| Compound | Ki (Peakr293 cell membranes) [nM] | Ki (membranes from Peakr293 cells) [nM] |
| --- | --- | --- |
| CC(C)C(=O)Nc1cccc(C2CCN(CCCc3c(-c4ccc(F)cc4)[nH]c4c3ccc3ccccc34)CC2)c1 [Example 714] | 4.7 | – |
| CC(C)C(=O)Nc1cccc(C2CCN(CCCCC(=O)c3cccc(Cl)c3)CC2)c1 [Example 666] | 21.9 | – |
| CC(=O)c1ccccc1OC(CCN1CCC(c2cccc(NC(=O)C(C)C)c2)CC1)c1ccc(Br)cc1 (stereo not shown) [Example 153] | – | 8.1 |
| CC(C)C(=O)Nc1cccc(C2CCN(CCCCC(=O)c3ccc(C(F)(F)F)cc3)CC2)c1 [Example 674] | 39.6 | – |
| CC(C)C(=O)Nc1cccc(C2CCN(CCCc3c(-c4cccc([N+](=O)[O-])c4)n(-c4ccccc4)c4ccccc34)CC2)c1 [Example 771] | 189 | – |
| CC(=O)c1cccc(OC(CCN2CCC(c3cccc(NC(=O)C(C)C)c3)CC2)c2ccc(Cl)cc2)c1 (stereo not shown) [Example 166] | – | 7.7 |
| CCC(=O)Nc1cccc(C2CCN(Cc3cn(-c4ccccc4Cl)c4ccccc34)CC2)c1 [Example 461] | 35.6 | – |
| CC(C)C(=O)Nc1cccc(C2CCN(CCCc3c(-c4ccc(Cl)cc4)n(C)c4ccccc34)CC2)c1 [Example 691] | 16.3 | – |
| CC(C)C(=O)Nc1cccc(C2CCN(Cc3cn(-c4ccccc4Cl)c4ccccc34)CC2)c1 [Example 460] | 9.1 | – |
| Cc1cccc2c(CCCCN3CCC(c4cccc(NC(=O)C(C)C)c4)CC3)c(-c3ccccc3)[nH]c12 [Example 403] | 11.7 | – |
| Cc1cccc(-n2ccc3cc(CN4CCC(c5cccc(NC(=O)C(C)C)c5)CC4)ccc32)c1 [Example 103] | – | 21.3 |
| CCn1c2ccccc2c2cc(CN3CCC(c4cccc(N5CCCC5=O)c4)CC3)ccc21 [Example 824] | 36.5 | – |
| CC(C)C(=O)Nc1cccc(C2CCN(Cc3c[nH]c4cc(-c5ccccc5F)ccc34)CC2)c1 [Example 525] | 91.4 | – |
| CC(C)C(=O)Nc1cccc(C2CCN(CCc3cn(C)c4ccccc34)CC2)c1 [Example 410] | 263 | – |
| Cc1ccc2c(CN3CCC(c4cccc(NC(=O)C(C)C)c4)CC3)c[nH]c2c1 [Example 495] | 95.1 | – |
| Cc1cccc2c(CCCN3CCC(c4cccc(NC(=O)C(C)C)c4)CC3)c(-c3ccc(C(F)(F)F)cc3)[nH]c12 [Example 687] | 20.6 | – |
| CC(=O)c1ccccc1OC(CCN1CCC(c2cccc(NC(=O)C(C)C)c2)CC1)c1ccc2c(c1)CCC2 (stereo not shown) [Example 157, N-(3-{1-[3-(2- ACETYLPHENOXY)-3-(2,3-DIHYDRO-1H-INDEN-5-YL)PROPYL]-4-PIPERIDINYL}PHENYL)-2-METHYLPROPANAMIDE] | – | 15.4 |
| CCC(=O)Nc1cccc(C2CCN(CCCCCSc3ccccc3)CC2)c1 [Example 589] | 66.6 | – |
| CC(C)C(=O)Nc1cccc(C2CCN(CCCCCC(Oc3ccc(F)cc3)c3ccccc3F)CC2)c1 (stereo not shown) [Example 890] | 11.1 | – |
| CC(=O)c1ccccc1O[C@H](CN1CCC(c2cccc(NC(=O)C(C)C)c2)CC1)c1ccccc1 [Example 334] | – | 603 |
| COc1ccc(C(CCN2CCC(c3cccc(NC(=O)C(C)C)c3)CC2)Oc2ccc(F)cc2)cc1 (stereo not shown) [Example 184] | – | 105 |
| CC(C)C(=O)Nc1cccc(C2CCN(CC[C@H](NC(=O)c3cccnc3)c3ccccc3)CC2)c1 [Example 319] | – | 89.8 |
| CC(C)C(=O)Nc1cccc(C2CCN(CCCCCC(O)c3ccccc3)CC2)c1 (stereo not shown) [Example 281] | – | 7.9 |
| CC(C)C(=O)Nc1cccc(C2CCN(CCCOC(=O)Cc3ccc(F)cc3)CC2)c1 [Example 286] | – | 67.8 |
| CSc1ccccc1NC(=O)NCCCN1CCC(c2cccc(NC(=O)C(C)C)c2)CC1 [Example 619] | 178 | – |

| Compound | Ki (Peakr293 cell membranes) [nM] | Ki (membranes from Peakr293 cells) [nM] |
| --- | --- | --- |
| CC(C)C(=O)Nc1cccc(C2CCN(CCCCCC(Oc3ccc(Cl)cc3)c3ccc(F)cc3)CC2)c1 (stereo not shown) [Example 901] | 8.2 | – |
| CC(C)CCOc1ccc2ccccc2c1CN1CCC(c2cccc(NC(=O)C(C)C)c2)CC1 [Example 188] | – | 531 |
| CC(C)C(=O)Nc1cccc(C2CCN(CCCCCN3C(=O)OC[C@@H]3c3ccc(F)c(F)c3)CC2)c1 [Example 574] | 87.1 | – |
| CC(C)C(=O)Nc1cccc(C2CCN(CCNC(=O)Nc3ccc(-c4ccccc4)cc3)CC2)c1 [Example 647] | 81.6 | – |
| COc1ccc(OC(CCCCCN2CCC(c3cccc(NC(=O)C(C)C)c3)CC2)c2ccccc2F)cc1OC (stereo not shown) [Example 894] | 41.7 | – |
| Cc1ccc(C2CCN(Cc3ccc(Oc4ccc(F)c(F)c4)cc3)CC2)cc1NC(=O)C(C)C [Example 269] | – | 27.4 |
| CCC(=O)Nc1cccc(C2CCN(CCCCC(=O)c3cccc(Cl)c3)CC2)c1 [Example 562] | 48.1 | – |
| CC(C)C(=O)Nc1cccc(C2CCN(CCC(Oc3ccccc3)c3ccc(Br)cc3)CC2)c1 (stereo not shown) [Example 151] | – | 14.2 |
| CC(=O)c1cccc(OC(CCCCCN2CCC(c3cccc(NC(=O)C(C)C)c3)CC2)c2ccc(F)cc2)c1 (stereo not shown) [Example 908] | 3.7 | – |
| CC(C)C(=O)Nc1cccc(C2CCN(Cc3c[nH]c4c(-c5ccc6ccccc6c5)cccc34)CC2)c1 [Example 517] | 287 | – |
| CC(C)C(=O)Nc1cccc(C2CCN(Cc3cccc4c3ccn4-c3cccc(C(F)(F)F)c3)CC2)c1 [Example 861] | 94.1 | – |
| O=C(Nc1cccc(C2CCN(CCCCCSc3ccccc3)CC2)c1)C1CC1 [Example 587] | 46.9 | – |
| CC(C)C(=O)Nc1cccc(C2CCN(CC[C@H](NC(=O)c3ccccn3)c3ccccc3)CC2)c1 [Example 309] | – | 310 |
| CC(C)C(=O)Nc1cccc(C2CCN(CCC(Oc3cccc(Br)c3)c3ccc(F)cc3)CC2)c1 (stereo not shown) [Example 138] | – | 9.3 |
| CC(C)C(=O)Nc1cccc(C2CCN(Cc3cn(-c4ccccc4)c4cc(C(F)(F)F)ccc34)CC2)c1 [Example 508] | 8.5 | – |
| CC(C)C(=O)Nc1cccc(C2CCN(Cc3cccc(Oc4ccc(Cl)c(Cl)c4)c3)CC2)c1 [Example 206] | – | 17.7 |
| CC(C)C(=O)Nc1cccc(C2CCN(CCCCC(O)c3ccccc3)CC2)c1 (stereo not shown) [Example 280] | – | 27.6 |
| CC(C)C(=O)Nc1cccc(C2CCN(CCCc3c(-c4cccc([N+](=O)[O-])c4)[nH]c4ccc(OC(F)(F)F)cc34)CC2)c1 [Example 768] | 17.5 | – |
| COc1cccc(-n2ccc3c(CN4CCC(c5cccc(NC(=O)C(C)C)c5)CC4)cccc32)c1 [Example 856] | 123 | – |
| CC(C)C(=O)Nc1cccc(C2CCN(CCCCCC(Oc3cc(C(F)(F)F)ccc3F)c3ccccc3)CC2)c1 (stereo not shown) [Example 916] | 20.2 | – |
| CC(C)C(=O)Nc1cccc(C2CCN(Cc3cccc(Oc4ccc(Cl)cc4)c3)CC2)c1 [Example 210] | – | 23.3 |
| CC(C)C(=O)Nc1cccc(C2CCN(CCCCCCC(=O)c3ccccc3)CC2)c1 [Example 528] | 115 | – |
| CC(C)C(=O)Nc1cccc(C2CCN(Cc3c[nH]c4ccc(C#N)cc34)CC2)c1 [Example 436] | 434 | – |
